Experimental data taken from PubChem BioAssay (NCI).
Values joined by “and” are separate entries in the source; they are usually repeats but may differ in a detail not shown here. Equal entries are not always repeated.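 Grown in 96-well plates, cells were treated for 48 hours with each compound at five concentrations. Insufficient inhibition: endpoint recorded as highest concentration tested. GI50 marks 50% less growth. TGI marks complete inhibition of growth.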

Columns and labels:
Test in all cases: inhibition of tumour cell growth, NCI panel, 48 h
[1] = tested on: CAKI-1 renal
[2] = tested on: DU-145 prostate
[3] = tested on: EKVX NSCLC
[4] = tested on: MCF7 breast
[5] = tested on: OVCAR-8 ovarian
[6] = tested on: RPMI-8226 leukemia
[7] = tested on: SF-295 CNS
[8] = tested on: SK-MEL-5 melanoma
[9] = tested on: TK-10 renal
[10] = tested on: K-562 leukemia

Row | SMILES | TGI [1] | TGI [2] | TGI [3] | TGI [4] | TGI [5] | TGI [6] | TGI [7] | TGI [8] | TGI [9] | TGI [10] | GI50 [1] | GI50 [2] | GI50 [3] | GI50 [4] | GI50 [5] | GI50 [6] | GI50 [7] | GI50 [8] | GI50 [9] | GI50 [10]
1 | CCCC1c2c(ccc3ccccc23)Oc2ccc3ccccc3c21 | > 100 µM | > 100 µM | > 100 µM | 35.6 µM | > 100 µM | 98.6 µM | 88.6 µM | > 100 µM | 98.2 µM | – | – | – | – | – | – | – | – | – | – | –
2 | CCCCCCCCCCCCCCCCCC(=O)OCC(CN(C)CCN(C)C)OC(=O)CCCCCCCCCCCCCCCCC (stereo unspecified) | > 100 µM | – | > 100 µM | – | > 100 µM | > 100 µM | > 100 µM | > 100 µM | > 100 µM | > 100 µM | – | – | – | – | – | – | – | – | – | –
3 | O=Cc1c(-c2cc(O)ccc2O)nc2sccn12 | 4.09 µM | 49.2 µM | 93.1 µM | > 100 µM | > 100 µM | 8.09 µM | 74.6 µM | 35.6 µM | 23.6 µM | – | 0.958 µM | 22.6 µM | 28.4 µM | 14.3 µM | 21.4 µM | 1.76 µM | 25 µM | 15.8 µM | 11 µM | –
4 | COC(=O)C1CC(C(=O)OC)c2nc3cc(C)ccc3nc21 (stereo unspecified) | > 100 µM | – | > 100 µM | – | > 100 µM | > 100 µM | > 100 µM | > 100 µM | > 100 µM | > 100 µM | – | – | – | – | – | – | – | – | – | –
5 | COC(=O)C1=C(C)N(NC(N)=O)C2(N)N(NC(N)=O)C(C)=C(C(=O)OC)C12C(=O)OC (stereo unspecified) | > 100 µM | – | > 100 µM | – | > 100 µM | > 100 µM | > 10 µM | – | > 100 µM | > 100 µM | – | – | – | – | – | – | – | – | – | –
6 | O=C1c2cccc3cc([N+](=O)[O-])cc(c23)C(=O)N1CCNCCNCCNCCN1C(=O)c2cccc3cc([N+](=O)[O-])cc(c23)C1=O | 0.548 µM | – | 0.88 µM | – | 0.512 µM | – | 0.422 µM and 0.465 µM | 1.52 µM and 0.174 µM | 0.321 µM | 0.229 µM | – | – | – | – | – | – | – | 0.0176 µM | – | –
7 | CC(C)C(=O)/C=C/c1ccccc1 | – | – | – | – | – | > 100 µM | > 100 µM | > 100 µM | – | > 100 µM | – | – | – | – | – | – | – | – | – | –
8 | O=c1c2ccccc2c2ccccc2c(=O)n1-c1cc2c3ccccc3ccc2c2ccccc12 | > 100 µM | > 100 µM | > 100 µM | > 100 µM | > 100 µM | > 100 µM | > 100 µM | > 100 µM | > 100 µM | – | – | – | – | – | – | – | – | – | – | –
9 | COC(=O)C(CCS(=O)(=O)CC(=O)C(=O)Nc1cccc(C(C)=O)c1)C(=O)OC | > 100 µM | – | > 100 µM | – | > 100 µM | > 69.4 µM | > 100 µM | > 100 µM | > 100 µM | > 100 µM | – | – | – | – | – | – | – | – | – | –
10 | C[C@@H]1C=C(CCCCCCCCCCC[C@H](O)[C@@H]2CCC(=O)O2)C(=O)O1 | > 100 µM | > 100 µM | > 100 µM | > 100 µM | 69 µM | – | 48.6 µM | 28.1 µM | 63.8 µM | 56.7 µM | 35.8 µM | 24.1 µM | 33.2 µM | 39.2 µM | 23.4 µM | – | 19.8 µM | 14.5 µM | 22.9 µM | 20.4 µM
11 | C/C(O)=C(\N=O)C(=O)NCCc1ccccc1 | > 100 µM | – | > 100 µM | – | > 100 µM | > 100 µM | > 100 µM | > 100 µM | > 79.2 µM | > 100 µM | – | – | – | – | – | – | – | – | – | –
12 | COCCn1cc(-c2csc(-c3c[nH]c4ccccc34)n2)c2cccnc21 | > 100 µM | > 100 µM | > 100 µM | > 100 µM | > 100 µM | – | > 100 µM | > 100 µM | – | > 100 µM | 8.36 µM | 15.4 µM | 2 µM | 1.74 µM | 8 µM | – | 3.35 µM | 3.22 µM | – | 2.8 µM
13 | O=S(=O)([O-])c1cccc2cccc(N=Cc3ccccc3[O-])c12.O=S(=O)([O-])c1cccc2cccc(N=Cc3ccccc3[O-])c12.[O]=[U]=[O] | – | – | > 100 µM | – | > 100 µM | > 100 µM | > 100 µM | – | 67.3 µM | > 100 µM | – | – | > 100 µM | – | 38.5 µM | 39.8 µM | 67.5 µM | – | 21.3 µM | 35.5 µM
14 | CCN(Cc1cccc(OC)c1)c1ccc(CO)c(Cl)c1 | 35.3 µM | 67.5 µM | 71.3 µM | 14.5 µM | 45.7 µM | 47.9 µM | 22 µM | 22.7 µM | – | > 86.5 µM | 0.901 µM | 21.1 µM | 19.9 µM | 0.196 µM | 12.6 µM | 6.44 µM | 0.889 µM | 10.2 µM | – | 1.92 µM
15 | Cc1cccc(C(C)(C)C)c1NC(=O)C(=O)C(C(=O)/C=C\c1ccccc1)C1OC(=O)c2ccccc21 (stereo unspecified) | > 100 µM | – | > 100 µM | – | > 100 µM | > 100 µM | > 100 µM | > 100 µM | > 100 µM | > 100 µM | – | – | – | – | – | – | – | – | – | –
16 | CCN(CC)c1ccc(/C=C\c2cc(C)c3cc(C)ccc3n2)cc1 | > 100 µM | > 100 µM | > 100 µM | > 100 µM | > 100 µM | 8.7 µM | > 100 µM | 4.57 µM | 36.7 µM | – | 5.55 µM | 9.08 µM | 45.6 µM | 2.95 µM | 4.79 µM | 3.13 µM | 4.19 µM | 1.71 µM | 5.11 µM | –
17 | CC(O)/C=C/C(CCC(C)CO)C(C)C (stereo unspecified) | > 100 µM | – | > 100 µM | – | > 100 µM | > 100 µM | > 100 µM | > 100 µM | > 100 µM | > 100 µM | – | – | – | – | – | – | – | – | – | –
18 | CCCCCCCCCC(=O)CC(=O)c1ccc(O)cc1O | 85.9 µM | – | 73 µM | – | 67.9 µM | 59.6 µM | 70.1 µM | 31.5 µM | > 100 µM | > 100 µM | – | – | – | – | – | – | – | – | – | –
19 | O=C1C=C[C@@]23CC1C(O)C[C@H]2C=Cc1ccccc13 (stereo partly specified) | > 100 µM | – | – | – | > 100 µM | > 100 µM | > 100 µM | > 100 µM | – | > 100 µM | – | – | – | – | – | – | – | – | – | –
20 | CCOC(=O)CC(=O)Sc1ccccc1 | – | – | 74 µM | – | 34.6 µM | 51 µM | 86.5 µM | 58.5 µM | > 100 µM | 58.7 µM | – | – | – | – | – | – | – | – | – | –
